Legend:
CCR-3 receptor = target: T1, CCR-3 receptor (Homo sapiens, UniProt P51677); test: CCR-3 receptor binding assay, inhibition of 125I eotaxin binding to CCR-3 L1.2 transfectant cells; conditions: inhibition of 125I-eotaxin binding to CCR-3 L1.2 transfected cells, 1 hour at rt
T1 construct: expressed in transfected cells; host or cells: L1.2 (murine pre-beta lymphoma line) transfected with CCR-3
T1 sequence (P51677 1-355): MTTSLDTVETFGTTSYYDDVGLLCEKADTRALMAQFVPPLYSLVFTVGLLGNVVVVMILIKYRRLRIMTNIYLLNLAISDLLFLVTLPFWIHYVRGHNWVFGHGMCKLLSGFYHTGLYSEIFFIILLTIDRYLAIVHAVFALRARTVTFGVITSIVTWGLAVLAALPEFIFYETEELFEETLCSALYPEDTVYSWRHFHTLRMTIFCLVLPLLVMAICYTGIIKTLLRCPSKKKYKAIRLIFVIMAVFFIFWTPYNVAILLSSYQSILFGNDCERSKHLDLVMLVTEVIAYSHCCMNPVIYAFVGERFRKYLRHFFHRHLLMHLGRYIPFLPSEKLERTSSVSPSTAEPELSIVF
Experimental: CCR-3 Receptor Binding Assay—In Vitro
The CCR-3 antagonistic activity of the compounds of the invention was determined by their ability to inhibit the binding of ^125I eotaxin to CCR-3 L1.2 transfectant cells (see Ponath, P. D. et al., J. Exp. Med., 183:2437–48, (1996)).
The assay was performed in Costar 96-well polypropylene round bottom plates. Test compounds were dissolved in DMSO and then diluted with binding buffer (50 mM HEPES, 1 mM CaCl2, 5 mM MgCl2, 0.5% bovine serum albumin (BSA), 0.02% sodium azide, pH 7.24) such that the final DMSO concentration was 2%. 25 μl of the test solution or only buffer with DMSO (control samples) was added to each well, followed by the addition of 25 μl of ^125I-eotaxin ([…]) (NEX314, New England Nuclear, Boston, Mass.) and 1.5×10^5 of the CCR-3 L1.2 transfected cells in 25 μl binding buffer. The final reaction volume was 75 μl.
After incubating the reaction mixture for 1 hour at rt, the reaction was terminated by filtering the reaction mixture through a polyethylenimine-treated Packard Unifilter GF/C filter plate (Packard, Chicago, Ill.). The filters were washed four times with ice cold wash buffer containing 10 mm HEPES and 0.5 M sodium chloride (pH 7.2) and dried at 65° C. for approximately 10 minutes. 25 μl/well of Microscint-20® scintillation fluid (Packard) was added and the radioactivity retained on the filters was determined by using the Packard TopCount®
Compounds of this invention were active in this assay.

IC50 (CCR-3 receptor) [nM]	melting point [°C]	SMILES
965		Cc1c(CN2C3CCC2CC(Cc2ccc(Cl)c(Cl)c2)C3)c(=O)n(-c2ccccc2)n1C (stereo not shown) [Example 6, 4-[3-(3,4-dichloro-benzyl)-8-aza-bicyclo[3.2.1]oct-8-ylmethyl]-1,5-dimethyl-2-phenyl-1,2-dihydro-pyrazol-3-one]
8.2	118 to 123	COc1cc(NC(=O)N[C@@H](CN2C3CCC2CC(Cc2ccc(Cl)cc2)C3)[C@@H](C)O)cc(OC)c1OC (stereo partly shown) [Example 7]
331		Cc1c(CN2CC3CCC2CC3Cc2ccc(Cl)c(Cl)c2)c(=O)n(-c2ccccc2)n1C (stereo not shown) [Example 2, 4-[5-(3,4-Dichloro-benzyl)-2-aza-bicyclo[2.2.2]oct-2-ylmethyl]-1,5-dimethyl-2-phenyl-1,2-dihydro-pyrazol-3-one]

From patent US7081531B2, “Bridged bicyclic amine derivatives useful as CCR-3 receptor antagonists” (Roche Palo Alto LLC, priority 2003, dated 2006)
